System: HBV viral load production from HepAD38 cells
Experiment: Viral production from HepAD38 cells: viral load in supernatant by qPCR of the HBV core sequence
Format: cell-based
Conditions: Hepatitis B virus, HePAD38, 120 h, 5 days incubation, qPCR of supernatant HBV DNA vs DMSO control, read-out: viral load lowering EC50 (Activity)
Summary of the method: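 Viral load was measured by qPCR of the HBV core region in supernatant, quantified against DNA standards and compared with DMSO wells. Cells (50,000/well, tetracycline withdrawn, 2% FBS) received compound from 10 μM final for 5 days; EC50 from four-parameter nonlinear regression.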

Row | SMILES | EC50 [nM]
1 | CN1C(C(=O)Nc2ccc(F)c(Cl)c2)CC(C(=O)NC2CCN(C(=O)OCc3ccccc3)CC2)NS1(=O)=O (stereo not drawn) [Compound 852] | 100 to 10000
2 | CN1C(C(=O)Nc2ccc(F)c(Cl)c2)CC(C(=O)NC2CCN(C(=O)C3CC3)CC2)NS1(=O)=O (stereo not drawn) [Compound 854] | < 50
3 | CN1C(C(=O)Nc2ccc(F)c(Cl)c2)CC(C(=O)NC2CCN(c3ncccn3)CC2)NS1(=O)=O (stereo not drawn) [Compound 855] | < 50
4 | CN1C(C(=O)Nc2ccc(F)c(Cl)c2)CC(C(=O)NC2CCN(S(=O)(=O)C(F)(F)F)CC2)NS1(=O)=O (stereo not drawn) [Compound 856] | 100 to 10000
5 | CN1C(C(=O)Nc2ccc(F)c(Cl)c2)CC(C(=O)NC2CC3CCC2C3)NS1(=O)=O (stereo not drawn) [Compound 858] | 100 to 10000
6 | CN1C(C(=O)Nc2ccc(F)c(Cl)c2)CC(C(=O)NC2CCC(F)(F)CC2)NS1(=O)=O (stereo not drawn) [Compound 859] | 100 to 10000
7 | CC(C)OC1CCC(NC(=O)C2CC(C(=O)Nc3ccc(F)c(Cl)c3)N(C)S(=O)(=O)N2)CC1 (stereo not drawn) [Compound 862] | < 50
8 | CN1C(C(=O)Nc2ccc(F)c(C#N)c2)CC(C(=O)NCc2nc3ccccc3s2)NS1(=O)=O (stereo not drawn) [Compound 866] | 100 to 10000
9 | CN1C(C(=O)Nc2ccc(F)c(C#N)c2)CC(C(=O)NC2CCN(C(=O)OC(C)(C)C)CC2)NS1(=O)=O (stereo not drawn) [Compound 868] | < 50
10 | CCN1C(C(=O)Nc2ccc(F)c(Cl)c2)CC(C(=O)NCc2cnc(C)s2)NS1(=O)=O (stereo not drawn) [Compound 888] | 100 to 10000
11 | CCN1C(C(=O)Nc2ccc(F)c(Cl)c2)CC(C(=O)NC2CCN(C(=O)OC)CC2)NS1(=O)=O (stereo not drawn) [Compound 890] | < 50
12 | Cc1ncc(CNC(=O)C2CC(C(=O)Nc3ccc(F)c(Cl)c3)N(CC(F)(F)F)S(=O)(=O)N2)s1 (stereo not drawn) [Compound 891] | 100 to 10000
13 | COC(=O)N1CCC(NC(=O)C2CC(C(=O)Nc3ccc(F)c(Cl)c3)N(CC(F)(F)F)S(=O)(=O)N2)CC1 (stereo not drawn) [Compound 893] | < 50
14 | COCCN1C(C(=O)Nc2ccc(F)c(Cl)c2)CC(C(=O)NC2CCN(C(=O)OC)CC2)NS1(=O)=O (stereo not drawn) [Compound 896] | 100 to 10000
15 | CN1C(C(=O)Nc2ccc(F)c(Cl)c2)CC(C(=O)NCc2ccccc2N2CCCCC2)NS1(=O)=O (stereo not drawn) [Compound 906] | 100 to 10000
16 | CN1C(C(=O)Nc2ccc(F)c(Cl)c2)CC(C(=O)NCc2ccccc2N2CCOCC2)NS1(=O)=O (stereo not drawn) [Compound 907] | 50 to 100
17 | CN1C(C(=O)Nc2ccc(F)c(Cl)c2)CC(C(=O)NCc2ccccc2-n2cccn2)NS1(=O)=O (stereo not drawn) [Compound 909] | < 50
18 | CN1C(C(=O)Nc2ccc(F)c(Cl)c2)CC(C(=O)NCc2ccccc2-n2ccnc2)NS1(=O)=O (stereo not drawn) [Compound 910] | 50 to 100
19 | CN1C(C(=O)Nc2ccc(F)c(Cl)c2)CC(C(=O)NCc2cnc(-c3cccnc3)s2)NS1(=O)=O (stereo not drawn) [Compound 911] | 50 to 100
20 | CN1C(C(=O)Nc2ccc(F)c(Cl)c2)CC(C(=O)NCc2cnc(-c3ccccc3Cl)s2)NS1(=O)=O (stereo not drawn) [Compound 912] | < 50
21 | CN1C(C(=O)Nc2ccc(F)c(Cl)c2)CC(C(=O)NCc2cnc(-c3cccc(Cl)c3)s2)NS1(=O)=O (stereo not drawn) [Compound 913] | 50 to 100
22 | Cc1nc(-c2ccccc2)sc1CNC(=O)C1CC(C(=O)Nc2ccc(F)c(Cl)c2)N(C)S(=O)(=O)N1 (stereo not drawn) [Compound 914] | < 50

Row | SMILES | EC50 [nM]
23 | CN1C(C(=O)Nc2ccc(F)c(Cl)c2)CC(C(=O)NCc2cnc(-c3ccc(C(F)(F)F)cc3)s2)NS1(=O)=O (stereo not drawn) [Compound 915] | 100 to 10000
24 | CN1C(C(=O)Nc2ccc(F)c(Cl)c2)CC(C(=O)NCc2cnc(-c3ccc(F)cc3)s2)NS1(=O)=O (stereo not drawn) [Compound 916] | < 50
25 | CN1C(C(=O)Nc2ccc(F)c(Cl)c2)CC(C(=O)NC2CCCc3nc(-c4ccccc4)sc32)NS1(=O)=O (stereo not drawn) [Compound 917] | < 50
26 | Cc1nc2c(s1)C(NC(=O)C1CC(C(=O)Nc3ccc(F)c(Cl)c3)N(C)S(=O)(=O)N1)CCC2 (stereo not drawn) [Compound 918] | < 50
27 | CN1C(C(=O)Nc2ccc(F)c(Cl)c2)CC(C(=O)NCc2cnc(-c3ccc(C#N)cc3F)s2)NS1(=O)=O (stereo not drawn) [Compound 920] | < 50
28 | CCN1CCC(Oc2ccc(-c3ncc(CNC(=O)C4CC(C(=O)Nc5ccc(F)c(Cl)c5)N(C)S(=O)(=O)N4)s3)cc2)CC1 (stereo not drawn) [Compound 921] | 50 to 100
29 | CN1C(C(=O)Nc2ccc(F)c(Cl)c2)CC(C(=O)NCc2cnc(-c3ccc(OCCN4CCCCC4)cc3)s2)NS1(=O)=O (stereo not drawn) [Compound 922] | < 50
30 | CN1C(C(=O)Nc2ccc(F)c(Cl)c2)CC(C(=O)NCc2cnc(-c3ccc(SCCCO)cc3)s2)NS1(=O)=O (stereo not drawn) [Compound 923] | 50 to 100
31 | CN1C(C(=O)Nc2ccc(F)c(Cl)c2)CC(C(=O)NCc2cnc(-c3ccc(O)cc3)s2)NS1(=O)=O (stereo not drawn) [Compound 924] | < 50
32 | CN1C(C(=O)Nc2ccc(F)c(Cl)c2)CC(C(=O)NCc2cnc(-c3ccc(C#CCCO)cc3)s2)NS1(=O)=O (stereo not drawn) [Compound 926] | < 50
33 | CN1C(C(=O)Nc2ccc(F)c(Cl)c2)CC(C(=O)NCc2cnc(-c3ccc(OCCCN4CCCC4)cc3)s2)NS1(=O)=O (stereo not drawn) [Compound 928] | 50 to 100
34 | CN1C(C(=O)Nc2ccc(F)c(Cl)c2)CC(C(=O)NCc2cnc(-c3cscn3)s2)NS1(=O)=O (stereo not drawn) [Compound 929] | < 50
35 | COc1ccc(-c2ncc(CNC(=O)C3CC(C(=O)Nc4ccc(F)c(Cl)c4)N(C)S(=O)(=O)N3)s2)cc1 (stereo not drawn) [Compound 932] | < 50
36 | CN1C(C(=O)Nc2ccc(F)c(Cl)c2)CC(C(=O)NCc2cnc(-c3ccc(OCCCN4CCCCC4)cc3)s2)NS1(=O)=O (stereo not drawn) [Compound 942] | 50 to 100
37 | CN(C)CC(C)(C)COc1ccc(-c2ncc(CNC(=O)C3CC(C(=O)Nc4ccc(F)c(Cl)c4)N(C)S(=O)(=O)N3)s2)cc1 (stereo not drawn) [Compound 943] | < 50
38 | CN1C(C(=O)Nc2ccc(F)c(Cl)c2)CC(C(=O)NCc2cnc(-c3ccc(C#CCN4CCCCC4)cc3)s2)NS1(=O)=O (stereo not drawn) [Compound 946] | 50 to 100
39 | CN1C(C(=O)Nc2ccc(F)c(Cl)c2)CC(C(=O)NCc2csc(-c3ccc(OCCN4CCCCC4)cc3)n2)NS1(=O)=O (stereo not drawn) [Compound 957] | < 50
40 | CN1C(C(=O)Nc2ccc(F)c(Cl)c2)CC(C(=O)NCC2CCN(c3ccccn3)CC2)NS1(=O)=O (stereo not drawn) [Compound 961] | 100 to 10000
41 | CN1C(C(=O)Nc2ccc(F)c(Cl)c2)CC(C(=O)NC2CCN(C(=O)OCCN3CCCCC3)CC2)NS1(=O)=O (stereo not drawn) [Compound 963] | 100 to 10000
42 | CN1C(C(=O)Nc2ccc(F)c(Cl)c2)CC(C(=O)NC2CCN(C(=O)OCCCN3CCCCC3)CC2)NS1(=O)=O (stereo not drawn) [Compound 964] | 100 to 10000
43 | Cc1ccnc(N2CCC(NC(=O)C3CC(C(=O)Nc4ccc(F)c(Cl)c4)N(C)S(=O)(=O)N3)CC2)c1 (stereo not drawn) [Compound 971] | < 50
44 | COc1ccnc(N2CCC(NC(=O)C3CC(C(=O)Nc4ccc(F)c(Cl)c4)N(C)S(=O)(=O)N3)CC2)c1 (stereo not drawn) [Compound 972] | < 50

Row | SMILES | EC50 [nM]
45 | CN1C(C(=O)Nc2ccc(F)c(Cl)c2)CC(C(=O)NC2CCN(c3cc(Cl)ccn3)CC2)NS1(=O)=O (stereo not drawn) [Compound 974] | < 50
46 | CN1C(C(=O)Nc2ccc(F)c(Cl)c2)CC(C(=O)NC2CCN(c3cc(CN4CCCCC4)ccn3)CC2)NS1(=O)=O (stereo not drawn) [Compound 975] | < 50
47 | CN1C(C(=O)Nc2ccc(F)c(Cl)c2)CC(C(=O)NC2CCCc3nc(Br)sc32)NS1(=O)=O (stereo not drawn) [Compound 978] | < 50
48 | CN1CCC(Oc2ccc(-c3ncc(CNC(=O)C4CC(C(=O)Nc5ccc(F)c(Cl)c5)N(C)S(=O)(=O)N4)s3)cc2)CC1 (stereo not drawn) [Compound 979] | < 50
49 | CN1C(C(=O)Nc2ccc(F)c(Cl)c2)CC(C(=O)NCc2cc(Br)no2)NS1(=O)=O (stereo not drawn) [Compound 980] | 100 to 10000
50 | COc1ccccc1-c1ncc(CNC(=O)C2CC(C(=O)Nc3ccc(F)c(Cl)c3)N(C)S(=O)(=O)N2)s1 (stereo not drawn) [Compound 987] | < 50
51 | COc1ccc(-c2ncc(CNC(=O)C3CC(C(=O)Nc4ccc(F)c(Cl)c4)N(C)S(=O)(=O)N3)s2)c(Cl)c1 (stereo not drawn) [Compound 988] | < 50
52 | CN1C(C(=O)Nc2ccc(F)c(Cl)c2)CC(C(=O)NCc2ccn(-c3ccccc3)n2)NS1(=O)=O (stereo not drawn) [Compound 991] | < 50
53 | CN1C(C(=O)Nc2ccc(F)c(Cl)c2)CC(C(=O)NCc2csc(Cl)n2)NS1(=O)=O (stereo not drawn) [Compound 1006] | 50 to 100
54 | CC(NC(=O)C1CC(C(=O)Nc2ccc(F)c(Cl)c2)N(C)S(=O)(=O)N1)c1csc(Cl)n1 (stereo not drawn) [Compound 1007] | < 50
55 | CN1C(C(=O)Nc2ccc(F)c(Cl)c2)CC(C(=O)NCc2ncc(-c3ccc(O)cc3)s2)NS1(=O)=O (stereo not drawn) [Compound 1009] | < 50
56 | CN1C(C(=O)Nc2ccc(F)c(Cl)c2)CC(C(=O)NCc2nc3ccc(O)cc3s2)NS1(=O)=O (stereo not drawn) [Compound 1010] | < 50
57 | COc1ccc2nc(CNC(=O)C3CC(C(=O)Nc4ccc(F)c(Cl)c4)N(C)S(=O)(=O)N3)sc2c1 (stereo not drawn) [Compound 1011] | < 50
58 | CN1C(C(=O)Nc2ccc(F)c(Cl)c2)CC(C(=O)NC2CCN(c3ccnc(Cl)c3)CC2)NS1(=O)=O (stereo not drawn) [Compound 1012] | < 50
59 | CN1C(C(=O)Nc2ccc(F)c(Cl)c2)CC(C(=O)NC(c2ccccc2)c2ccccc2)NS1(=O)=O (stereo not drawn) [Compound 1014] | < 50
60 | Cc1nc(-c2ccccc2Cl)sc1CNC(=O)C1CC(C(=O)Nc2ccc(F)c(Cl)c2)N(C)S(=O)(=O)N1 (stereo not drawn) [Compound 1015] | < 50
61 | Cc1nc(-c2ccccc2F)sc1CNC(=O)C1CC(C(=O)Nc2ccc(F)c(Cl)c2)N(C)S(=O)(=O)N1 (stereo not drawn) [Compound 1016] | < 50
62 | Cc1ccccc1-c1nc(C)c(CNC(=O)C2CC(C(=O)Nc3ccc(F)c(Cl)c3)N(C)S(=O)(=O)N2)s1 (stereo not drawn) [Compound 1017] | < 50
63 | CN1C(C(=O)Nc2ccc(F)c(Cl)c2)CC(C(=O)NC2CCCc3nc(-c4ccccc4Cl)sc32)NS1(=O)=O (stereo not drawn) [Compound 1018] | < 50
64 | CC(NC(=O)C1CC(C(=O)Nc2ccc(F)c(Cl)c2)N(C)S(=O)(=O)N1)c1cnc(-c2ccccc2Cl)s1 (stereo not drawn) [Compound 1019] | < 50
65 | CN1C(C(=O)Nc2ccc(F)c(Cl)c2)CC(C(=O)NCc2cc(-c3ccccc3Cl)no2)NS1(=O)=O (stereo not drawn) [Compound 1025] | < 50
66 | CN1C(C(=O)Nc2ccc(F)c(Cl)c2)CC(C(=O)NCc2cnc(-c3ccc(O)cc3Cl)s2)NS1(=O)=O (stereo not drawn) [Compound 1028] | < 50
